For the experiment, the system named is B.1.617.2 Delta Variant of SARS-CoV-2. The experiment in a line: microbe, parasite or virus in culture. The class given is cell-based.

From patent US20240285552A1 (priority 2020, published 2024) come the findings set out here.

Each structure is given as a SMILES string. Residues, ends and D or L forms follow the SMILES beside them. *: point of attachment. Cbz = O=C(OCc1ccccc1)*; CH2F = FC*

Turning to `CC(C)C[C@H](NC(=O)OCc1ccccc1)C(=O)N[C@@H](CC(C)C)C(=O)N[C@@H](Cc1ccc(O)cc1)C(=O)CF` [Calpain Inhibitor IV] (Cbz-Leu-Leu-Tyr-CH2F), the “Conc. at Max. % Inhibition” value came out at 0.45 µM and the “Max. Inhibition” value is listed as 105.43%. Moreover, the IC50 (read-out: IC 50 against B.1.617.2 Delta Variant Infection-Induced CPE) was 124 nM.
